Activity calls are given as the source filed them. The calls are words filed in the database; no cut-off is given here.
Key:
[1] = Toxicity against human KIF5 cells incubated for 24 hrs by CellTiter Blue cell viability assay; format: cell-based
[2] = system: Bacillus subtilis; assay: Antimicrobial activity against Bacillus subtilis DSM 347 incubated for 5 hrs by resazurin dye based assay; format: functional, organism-based; conditions: DSM 347, 5 h
[3] = biological target: Acetylcholinesterase (Homo sapiens, UniProt P22303); assay: Inhibition of human AChE pre-incubated for 10 mins before acetylthiocholine iodide substrate addition
Acetylcholinesterase, sequence (P22303 whole entry): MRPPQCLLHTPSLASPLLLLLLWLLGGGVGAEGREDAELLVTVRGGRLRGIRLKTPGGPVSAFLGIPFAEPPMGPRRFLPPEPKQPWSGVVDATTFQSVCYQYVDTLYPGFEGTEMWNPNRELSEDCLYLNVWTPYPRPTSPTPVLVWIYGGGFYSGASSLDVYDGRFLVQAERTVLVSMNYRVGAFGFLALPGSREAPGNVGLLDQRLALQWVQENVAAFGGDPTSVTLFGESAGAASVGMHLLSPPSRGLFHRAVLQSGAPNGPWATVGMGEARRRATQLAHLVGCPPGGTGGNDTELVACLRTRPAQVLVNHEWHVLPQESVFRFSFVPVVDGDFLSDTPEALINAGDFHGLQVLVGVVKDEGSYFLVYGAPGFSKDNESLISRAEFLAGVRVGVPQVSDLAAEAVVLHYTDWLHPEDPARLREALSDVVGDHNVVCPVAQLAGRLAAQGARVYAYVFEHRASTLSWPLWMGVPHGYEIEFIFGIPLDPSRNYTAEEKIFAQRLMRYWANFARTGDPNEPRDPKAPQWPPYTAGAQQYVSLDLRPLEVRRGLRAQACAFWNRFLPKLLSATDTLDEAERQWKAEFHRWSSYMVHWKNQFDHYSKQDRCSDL

[4] = system: Xanthomonas campestris; assay: Antimicrobial activity against Xanthomonas campestris DSM 2405 incubated for 6 hrs by resazurin dye based assay; format: functional, organism-based
[5] = system: Candida albicans; assay: Antimicrobial activity against Candida albicans DSM 1386 incubated for 5 hrs by resazurin dye based assay; format: functional, organism-based

| Compound | IC50 at 24 h [1] [µM] | IC50 [2] [µM] | IC50 [3] [µM] | Activity [4] | Activity [5] |
| --- | --- | --- | --- | --- | --- |
| Oc1cccc2nc3c(O)cccc3nc12 | > 50 | 22 | 4.52 | – | – |
| Oc1ccc2nc3ccccc3nc2c1 | > 50 | 75 | > 50 | – | – |
| O=C(N[C@H](CO)[C@H](O)c1ccc([N+](=O)[O-])cc1)C(Cl)Cl [CHLORAMPHENICOL] | – | 1.45 | – | – | – |
| CC(=O)Oc1cccc2nc3c(OC(C)=O)ccc(C/C=C(\C)CCC=C(C)C)c3nc12 [DIACETYLGERANYLPHENAZINEDIOL] | > 50 | 13 | 2.01 | inactive | inactive |
| CC(C)=CCc1cccc2nc3cccc(C(=O)O)c3nc12 [ENDOPHENAZINE A] | > 10 | 111 | > 50 | – | – |
| CC(C)=CCc1cc(=O)cc2n(C)c3cccc(C(=O)O)c3nc1-2 [ENDOPHENAZINE B] | > 50 | > 150 | > 50 | – | – |
| CC(C)=CCC/C(C)=C/Cc1ccc(O)c2nc3cccc(O)c3nc12 [GERANYLPHENAZINEDIOL] | > 50 | 24 | 2.62 | inactive | inactive |
| O=C(O)c1cccc2nc3ccccc3nc12 [PHENAZINE-1-CARBOXYLIC ACID] | > 50 | > 150 | > 50 | – | – |
| CC/C(=C(\c1ccccc1)c1ccc(OCCN(C)C)cc1)c1ccccc1 [TAMOXIFEN] | 23.8 | – | – | – | – |

Source: ChEMBL document CHEMBL2069170, “Geranylphenazinediol, an acetylcholinesterase inhibitor produced by a Streptomyces species” (J Nat Prod, 2012)
